Test results published in patent publication US6699989B1, “Antiviral and antimicrobial guanidine or biguanidine derivatives” (priority 2000, dated 2004).
Values after ≈ are worked out from the molar mass of the structure shown. “Also recorded” adds a separate entry of the source. Read-outs that look alike come from different tables or passages of the source.

Columns and labels:
CEM-SS cells = type: cell-based
HIV-1 [1] = test: microbe, parasite or virus in culture; conditions: Human immunodeficiency virus 1, CEM-SS
Description: This is a cytoprotection assay that uses the T-lymphoblastoid tumor cell line CEM-SS and laboratory adapted strains of HIV-1. Upon infection with HIV, the CEM-SS cells form syncytia and eventually die, producing large amounts of progeny virus over the course of 4-6 days at the standard multiplicity of infection (0.01). The antiviral assay measures the ability of a given compound to inhibit the HIV-induced cell killing. […] The activity of the compound is evaluated by measuring cell viability at 6 days post-infection and comparing the viability to that obtained in cell control (cells only), virus control (cells and virus only) and toxicity control (cells and compound only) wells.
Efficacy of the compound in cell culture is measured by increased cell viability in CEM-SS assays or reduction in virus production in PBMC assays. The data obtained yields a dose response curve which can be evaluated to determine doses which yield 25%, 50% and 95% protection from HIV-induced cell killing or virus production. […] These concentrations are reported as the TC25, TC50 and TC95 values. The ratio of toxicity to efficacy constitutes the therapeutic index TC50/IC50.
CEM-SS cells assay measures the ability of the compound to inhibit HIV induced cell killing. The cells are stained at 6 days post-infection with the tetrazolium dye XTT which is converted to a colored formazan product by the mitochondria of viable cells. Protection from cell killing afforded by the test compound is measured by comparison to both cell controls and virus controls. Cell killing in this system is directly related to the amount of virus produced by the infected cells and XTT-formazan production is proportional to the number of viable cells in each well. Toxicity of the compound to the target cells is measured in parallel.
CEM-SS cells (or other established human cell line used in these experiments) were passaged in T-150 flasks for use in the assay. On the day preceding the assay, the cells were split 1:2 to assure they would be in an exponential growth phase at time of infection. On the day of assay the cells were washed twice with tissue culture medium and resuspended in fresh tissue culture medium. Total cell and viability counting was performed using hemacytometer and trypan blue dye exclusion. Cell viability was greater than 95% for the cells to be utilized in the assay. The cells were pelleted and resuspended at 2.5×10^4 cells per ml in tissue culture medium. Cells were added to the drug-containing plates in a volume of 50 μl.
A pretitered aliquot of virus was removed from the freezer (−80° C.) and allowed to thaw slowly to room temperature in a biological safety cabinet. The virus was resuspended and diluted into tissue culture medium such that the amount of virus added to each well in a volume of 50 μl will be the amount determined to give complete cell killing at 6 days post-infection. In general the virus pools produced with the IIIB isolate of HIV required the addition of 5 μl of virus per well.
Each plate contained cell control wells (cells only), virus control wells (cells plus virus), drug toxicity control wells (cells plus drug only), drug colorimetric control wells (drug only) as well as experimental wells (drug plus cells plus virus).
After 6 days of incubation at 37° C. in a 5% CO2 incubator the test plates were analyzed by staining with the tetrazolium dye XTT. XTT-tetrazolium is metabolized by the mitochondrial enzymes of metabolically active cells to a soluble formazan product, allowing the rapid quantitative analysis of the inhibition of HIV-induced cell killing by anti-HIV test substances. On day 6 post-infection plates were removed from the incubator and observed.

HIV-1 [2] = test: PBMC assay, virus production by reverse transcriptase activity; type: cell-based
Description: Method 2: PBMC Assay Method (Peripheral Blood Mononuclear cell)—Description
This assay addresses the issue of providing a rationale for further evaluation of the compound by providing evidence of in vitro anti-HIV activity against a low passage clinical strain of HIV-1. These fresh human peripheral blood mononuclear cell assays use fresh human cells obtained from the American Red Cross from uninfected, normal human donors. Mononuclear cells from these blood samples are isolated by centrifugation and infected with low passage clinical strains of HIV-1 which have been obtained by culture of blood cells from HIV-infected patients with uninfected PBMCs. Since the PBMCs are not killed by HIV infection, endpoint quantification is performed by measurement of virus production in each well by reverse transcriptase assay or p24 ELISA. These assays provide evidence that the test compounds will have efficacy against viruses, which will likely be encountered in patients without genetic changes, introduced by passage in cell culture.
Thus, PBMCs assay measures the amount of virus released from the infected cells into the tissue culture supernatant. The activity of the test compound is measured by its ability to reduce the level of virus production relative to the virus controls (cells+virus with no added compound). In PBMC culture we use reverse transcriptase activity in the supernatant to quantify the amount of virus production from the infected cells. Endpoint quantification is performed at 6 days post-infection.
Fresh human peripheral blood lymphocytes (PBL) are isolated from voluntary Red Cross donors, seronegative for HIV and HBV. Leukophoresed blood is diluted 1:1 with Dulbecco's phosphate buffered saline (PBS), layered over 14 mL of Ficoll-Hypaque density gradient in a 50 mL centrifuge tube. Tubes are then centrifuged for 30 minutes at 600×g. Banded PBLs are gently aspirated from the resulting interface and subsequently washed 2× with PBS by low speed centrifugation. […] After incubation, PBLs are centrifuged and reset in RPMI 1640 with 15% FBS, 2 mM L-glutamine, 100 U/mL. penicillin, 100 ug/mL streptomycin, 10 ug/mL gentamycin, and 20 U/mL recombinant human IL-2. PBLs are maintained in this medium at a concentration of 1-2×10E6/mL with bi-weekly medium changes, until use in assay protocol. For the PBL assay, PHA-P stimulated cells from at least two normal donors are pooled, set in fresh medium at 2×10E6/mL and plated in the interior wells of a 96 well round bottom microplate at 50 μL/well. Test drug dilutions are prepared at a 2× concentration in microtiter tubes and 100 μL of each concentration is placed in appropriate wells in a standard format. 50 μL of a predetermined dilution of virus stock is placed in each test well. Wells with cells and virus alone are used for virus control. Separate plates are identically set without virus for drug cytotoxicity studies using an XTT assay system.
In the standard PBL assay (MOI: 0.2), the assay was ended on day 7 following collection of cell free supernatant samples for reverse transcriptase activity assay. In the low MOI PBL assay (MOI: 0.02), supernatant samples were collected on day 6, day 11, and day 14 post-infection and analyzed for RT activity.

PBMCs = test: Toxicity to PBMC, XTT; type: cell-based, human

Structure (SMILES): N=C(NCCCCCCNC(=N)NC(=N)N1CCN(c2cc3c(cc2F)c(=O)c(C(=O)O)cn3C2CC2)CC1)NC(=N)N1CCN(c2cc3c(cc2F)c(=O)c(C(=O)O)cn3C2CC2)CC1 [BVS-10A]
- % CELL VIABILITY (CEM-SS cells; 0.00032 uG/mL, CEM-SS): 100%
- CYTOTOXICITY TEST VALUES MEAN O.D. (CEM-SS cells; 0.00032 uG/mL, CEM-SS): 1.317 O.D.
- % CELL VIABILITY (CEM-SS cells; 0.001 uG/mL, CEM-SS): 100%
- CYTOTOXICITY TEST VALUES MEAN O.D. (CEM-SS cells; 0.001 uG/mL, CEM-SS): 1.323 O.D.
- % CELL VIABILITY (CEM-SS cells; 0.0032 uG/mL, CEM-SS): 100%
- CYTOTOXICITY TEST VALUES MEAN O.D. (CEM-SS cells; 0.0032 uG/mL, CEM-SS): 1.307 O.D.
- % CELL VIABILITY (CEM-SS cells; 0.01 uG/mL, CEM-SS): 100%
- CYTOTOXICITY TEST VALUES MEAN O.D. (CEM-SS cells; 0.01 uG/mL, CEM-SS): 1.364 O.D.
- % CELL VIABILITY (CEM-SS cells; 0.032 uG/mL, CEM-SS): 100%
- CYTOTOXICITY TEST VALUES MEAN O.D. (CEM-SS cells; 0.032 uG/mL, CEM-SS): 1.339 O.D.
- % CELL VIABILITY (CEM-SS cells; 0.1 uG/mL, CEM-SS): 100%
- CYTOTOXICITY TEST VALUES MEAN O.D. (CEM-SS cells; 0.1 uG/mL, CEM-SS): 1.369 O.D.
- % CELL VIABILITY (CEM-SS cells; 0.32 uG/mL, CEM-SS): 100%
- CYTOTOXICITY TEST VALUES MEAN O.D. (CEM-SS cells; 0.32 uG/mL, CEM-SS): 1.385 O.D.
- % CELL VIABILITY (CEM-SS cells; 1 uG/mL, CEM-SS): 100%
- CYTOTOXICITY TEST VALUES MEAN O.D. (CEM-SS cells; 1 uG/mL, CEM-SS): 1.512 O.D.
- % CELL VIABILITY (CEM-SS cells; 3.2 uG/mL, CEM-SS): 100%
- CYTOTOXICITY TEST VALUES MEAN O.D. (CEM-SS cells; 3.2 uG/mL, CEM-SS): 1.556 O.D.
- % CELL VIABILITY (CEM-SS cells; 10 uG/mL, CEM-SS): 100%
- CYTOTOXICITY TEST VALUES MEAN O.D. (CEM-SS cells; 10 uG/mL, CEM-SS): 1.804 O.D.
- % CELL VIABILITY (CEM-SS cells; 32 uG/mL, CEM-SS): 100%
- CYTOTOXICITY TEST VALUES MEAN O.D. (CEM-SS cells; 32 uG/mL, CEM-SS): 2.390 O.D.
- % CELL VIABILITY (CEM-SS cells; 100 uG/mL, CEM-SS): 100%
- CYTOTOXICITY TEST VALUES MEAN O.D. (CEM-SS cells; 100 uG/mL, CEM-SS): 1.797 O.D.
- TC 25% (CEM-SS cells; CEM-SS, XTT): >100.00 UG/mL
- TC 50% (CEM-SS cells; CEM-SS, XTT): >100.00 UG/mL
- TC 95% (CEM-SS cells; CEM-SS, XTT): >100.00 UG/mL
- toxicity in CEM-SS cells (CEM-SS cells; at concentrations up to 100 μg/mL): nontoxic; also recorded: No toxicity
- IC50 (HIV-1 [1]): 16.6 µg/mL (≈ 18.2 µM)
- IC50 (HIV-1 [1]; read-out: 50% inhibition of cell killing): 12 µg/mL (≈ 13.1 µM)
- IC50 (HIV-1 [1]; read-out: calculated IC50): 16.6 µg/mL (≈ 18.2 µM)
- RT ACTIVITY MEAN (HIV-1 [2]; 0.01 μg/ml, ROJO in PBMC): 6532.7 cpm
- RT ACTIVITY MEAN (HIV-1 [2]; 0.032 μg/ml, ROJO in PBMC): 7531.7 cpm
- RT ACTIVITY MEAN (HIV-1 [2]; 0.1 μg/ml, ROJO in PBMC): 5919.0 cpm
- RT ACTIVITY MEAN (HIV-1 [2]; 0.32 μg/ml, ROJO in PBMC): 5899.7 cpm
- RT ACTIVITY MEAN (HIV-1 [2]; 1 μg/ml, ROJO in PBMC): 6546.7 cpm
- RT ACTIVITY MEAN (HIV-1 [2]; 3.2 μg/ml, ROJO in PBMC): 2327.0 cpm
- RT ACTIVITY MEAN (HIV-1 [2]; 10 μg/ml, ROJO in PBMC): 274.0 cpm
- RT ACTIVITY MEAN (HIV-1 [2]; 32 μg/ml, ROJO in PBMC): 68.0 cpm
- RT ACTIVITY MEAN (HIV-1 [2]; 100 μg/ml, ROJO in PBMC): 49.3 cpm
- IC50 (HIV-1 [2]; Human immunodeficiency virus 1, PBMC, PBMCs, read-out: 50% inhibition of virus replication): 2.5 µg/mL (≈ 2.74 µM)
- activity at 0.01 µg/mL (HIV-1 [2]; Human immunodeficiency virus 1, 0.01 μg/ml, ROJO in PBMC, read-out: RT ACTIVITY % VC): 90.8%
- activity at 0.032 µg/mL (HIV-1 [2]; Human immunodeficiency virus 1, 0.032 μg/ml, ROJO in PBMC, read-out: RT ACTIVITY % VC): 105%
- activity at 0.1 µg/mL (HIV-1 [2]; Human immunodeficiency virus 1, 0.1 μg/ml, ROJO in PBMC, read-out: RT ACTIVITY % VC): 82.2%
- activity at 0.32 µg/mL (HIV-1 [2]; Human immunodeficiency virus 1, 0.32 μg/ml, ROJO in PBMC, read-out: RT ACTIVITY % VC): 82%
- activity at 1 µg/mL (HIV-1 [2]; Human immunodeficiency virus 1, 1 μg/ml, ROJO in PBMC, read-out: RT ACTIVITY % VC): 91%
- activity at 3.2 µg/mL (HIV-1 [2]; Human immunodeficiency virus 1, 3.2 μg/ml, ROJO in PBMC, read-out: RT ACTIVITY % VC): 32.3%
- activity at 10 µg/mL (HIV-1 [2]; Human immunodeficiency virus 1, 10 μg/ml, ROJO in PBMC, read-out: RT ACTIVITY % VC): 3.8%
- activity at 32 µg/mL (HIV-1 [2]; Human immunodeficiency virus 1, 32 μg/ml, ROJO in PBMC, read-out: RT ACTIVITY % VC): 0.9%
- activity at 100 µg/mL (HIV-1 [2]; Human immunodeficiency virus 1, 100 μg/ml, ROJO in PBMC, read-out: RT ACTIVITY % VC): 0.7%
- IC50 (HIV-1 [2]; Human immunodeficiency virus 1, ROJO in PBMC, RT activity, read-out: IC50): 2.54 µg/mL (≈ 2.78 µM)
- concentrations at which active in PBMCs (HIV-1 [2]; PBMCs): greater than 3.2 μg/mL
- TOXICITY % CC (PBMCs; 0.01 μg/ml, PBMC): 103.2%
- TOXICITY VALUES (XTT O.D. @ 450/650 nm) MEAN (PBMCs; 0.01 μg/ml, PBMC): 3.415 O.D.
- TOXICITY % CC (PBMCs; 0.032 μg/ml, PBMC): 103.6%
- TOXICITY VALUES (XTT O.D. @ 450/650 nm) MEAN (PBMCs; 0.032 μg/ml, PBMC): 3.426 O.D.
- TOXICITY % CC (PBMCs; 0.1 μg/ml, PBMC): 97.1%
- TOXICITY VALUES (XTT O.D. @ 450/650 nm) MEAN (PBMCs; 0.1 μg/ml, PBMC): 3.214 O.D.
- TOXICITY % CC (PBMCs; 0.32 μg/ml, PBMC): 100.9%
- TOXICITY VALUES (XTT O.D. @ 450/650 nm) MEAN (PBMCs; 0.32 μg/ml, PBMC): 3.339 O.D.
- TOXICITY % CC (PBMCs; 1 μg/ml, PBMC): 96.2%
- TOXICITY VALUES (XTT O.D. @ 450/650 nm) MEAN (PBMCs; 1 μg/ml, PBMC): 3.181 O.D.
- TOXICITY % CC (PBMCs; 3.2 μg/ml, PBMC): 103.5%
- TOXICITY VALUES (XTT O.D. @ 450/650 nm) MEAN (PBMCs; 3.2 μg/ml, PBMC): 3.424 O.D.
- TOXICITY % CC (PBMCs; 10 μg/ml, PBMC): 108.3%
- TOXICITY VALUES (XTT O.D. @ 450/650 nm) MEAN (PBMCs; 10 μg/ml, PBMC): 3.583 O.D.
- TOXICITY % CC (PBMCs; 32 μg/ml, PBMC): 97.3%
- TOXICITY VALUES (XTT O.D. @ 450/650 nm) MEAN (PBMCs; 32 μg/ml, PBMC): 3.220 O.D.
- TOXICITY % CC (PBMCs; 100 μg/ml, PBMC): 51.2%
- TOXICITY VALUES (XTT O.D. @ 450/650 nm) MEAN (PBMCs; 100 μg/ml, PBMC): 1.695 O.D.
- 50% inhibition of cell growth (PBMCs; PBMC cultures): approximately 100 μg/mL
- TC50 (PBMCs; PBMC, XTT): TC50 (μg/ml) = >100
- toxicity in PBMCs (PBMCs; at 100 μg/mL): Toxicity was detected
